Key:
[1] = biological target: T1, human adenosine A3 receptors (Homo sapiens, UniProt P0DMS8); experiment: Reporter gene experiments in CHO cells (CRE/SPAP, inhibition of forskolin-stimulated SPAP production); format: cell-based; conditions: ECR = equipotent concentration ratio relative to NECA = 1; agonist potency, CHO CRE/SPAP reporter gene assay
T1 construct: expressed in transfected cells; host or cells: Chinese hamster ovary (CHO) cells with CRE/SPAP/HYG reporter
T1 sequence (P0DMS8 1-318): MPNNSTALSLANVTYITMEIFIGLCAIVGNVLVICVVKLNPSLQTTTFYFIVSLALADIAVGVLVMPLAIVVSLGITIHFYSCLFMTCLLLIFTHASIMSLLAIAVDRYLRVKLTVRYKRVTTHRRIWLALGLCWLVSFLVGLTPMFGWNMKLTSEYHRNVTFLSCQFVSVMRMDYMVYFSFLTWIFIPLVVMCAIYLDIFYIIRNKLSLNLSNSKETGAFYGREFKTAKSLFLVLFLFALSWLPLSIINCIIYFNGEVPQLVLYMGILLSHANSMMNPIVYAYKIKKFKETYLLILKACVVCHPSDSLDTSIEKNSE
Source text: The compounds useful in the invention are agonists at the adenosine A1 receptor. Preferably they are selective agonists at the adenosine A1 receptor. By selective is meant that the affinity for the A1 receptor is at least 2 times, preferably 5 times and more preferably 10 times greater than the other adenosine receptor subtypes, particularly A3. Agonist selectivity of compounds against other human adenosine receptors can be determined using Chinese hamster ovary (CHO) cells transfected with the gene for the relevant human adenosine receptor following a method based on that of Castanon, K V. and Spevak, W. (1994) Biochem. Biophys. Res. Commun. 198, 626-631. The CHO cells are also transfected with cyclic AMP response elements promoting the gene for secreted placental alkaline phosphatase (SPAP) (Wood, K V. (1995) Cuff. Opinion. Biotechnology, 6, 50-58). The effect of test compounds is determined by their effects on basal levels of cAMP (A2a) or on forskolin-enhanced cAMP (A1 and A3) as reflected by changes in levels of SPAP. EC50 values for compounds are determined as a ratio to that of the non-selective agonist N-ethyl carboxamidoadenosine (NECA). “Adenosine receptors: New opportunities for future drugs” (S. A. Poulsen et al, Bioorg. Med. Chem,. 1998, 6, 619-641) summarises disease conditions that may be treated with adenosine A1 agonists.
Reporter Gene Experiments in CHO cells
Agonist activity at human adenosine A3 receptors was measured in Chinese hamster ovary (CHO) cells containing the CRE/SPAP/HYG (CRE=cyclic AMP response element; HYG=hygromycin resistance; SPAP=secreted placental alkaline phosphatase) reporter gene elements, which upon stimulation of cAMP levels produced SPAP. A cell line was used which was stably transfected with the human adenosine A3 receptor in addition to the above elements. Cells were plated out in 96-well plates in culture medium and incubated at 37° C. for 1 hour. For measurement of potency, agonists were added to the appropriate wells at a concentration range of approximately 10^−10-10^−5M. 15 Min later, cAMP levels were stimulated by addition of a maximal concentration of forskolin. All cells were then incubated for a further 5 hours at 37° C., and cooled to room temperature, after which a substrate for the phosphatase (para-nitrophenol phosphate, pNPP), which is converted by SPAP to a coloured reagent) was then added and the 96-well plates were read in a plate reader. From these readings, the concentration-dependence of the inhibition by the agonist for forskolin-stimulated SPAP production can be calculated. As with the yeast assays, one of the agonists tested on each 96-well plate was the standard non-selective agonist, N-ethylcarboxamidoadenosine (NECA), and the potency of all test agonists is expressed relative to that of the NECA standard.

[2] = biological target: T2, human adenosine A1 receptors (Homo sapiens, UniProt P30542); experiment: Reporter gene experiments in yeast (agonist activity, β-galactosidase/FDG readout); format: cell-based; design: key: equipotent concentration ratio relative to NECA = 1; conditions: ECR = equipotent concentration ratio relative to NECA = 1; agonist potency, yeast reporter gene assay
T2 construct: expressed in transfected cells
T2 sequence (P30542 1-326): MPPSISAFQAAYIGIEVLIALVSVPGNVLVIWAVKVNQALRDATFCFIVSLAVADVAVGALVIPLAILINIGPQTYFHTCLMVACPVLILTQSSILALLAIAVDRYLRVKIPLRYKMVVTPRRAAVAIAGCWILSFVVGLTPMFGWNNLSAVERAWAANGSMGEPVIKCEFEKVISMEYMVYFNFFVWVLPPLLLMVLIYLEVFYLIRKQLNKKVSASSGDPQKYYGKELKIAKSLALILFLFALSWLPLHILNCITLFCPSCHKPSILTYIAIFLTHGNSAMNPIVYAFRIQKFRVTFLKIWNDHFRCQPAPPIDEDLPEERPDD
Experimental: Reporter Gene Experiments in Yeast
Agonist activity at human adenosine A1 receptors was measured in yeast cell lines expressing the adenosine A1 receptor together with a chimeric G-protein which linked receptor stimulation to the expression of the enzyme β-galactosidase. Cells were plated out in 96-well plates in culture medium to which was added 2 mM 3-AT (3-aminotriazole) to limit basal growth in the absence of agonist stimulation, and FDG (fluorescein di-β-D-galactopyranoside) as substrate for β-galactosidase, which converts FDG to fluorescein. For measurement of potency, agonists were added to the appropriate wells at a concentration range of approximately 10^−10-10^−5M and incubated at 30° C. for 18 hours. At this point the amount of fluorescein generated was measured in a spectrophotometer. From these readings, the concentration-dependence of the stimulation by the agonist can be calculated. One of the agonists tested on each 96-well plate was the standard non-selective agonist, N-ethylcarboxamidoadenosine (NECA), and the potency of all test agonists is expressed relative to that of the NECA standard.
(ECR=equipotent concentration ratio relative to NECA=1)

Molecule | Adenosine A3 receptor ECR* [1] | Adenosine A1 receptor ECR* [2]
C#C[C@H]1O[C@@H](n2cnc3c(N[C@@H]4CCC[C@]4(OC)c4ccccc4)ncnc32)[C@H](O)[C@@H]1O (relative stereo) [Example 9, (2R,3R,4S,6R)-5-Ethynyl-2-(6-{[(1R*,2S*)-2-methoxy-2-phenylcyclopentyl]amino}-9H-purin-9-yl)tetrahydrofuran-3,4-diol] | >165 | 23.81
C#C[C@H]1O[C@@H](n2cnc3c(Nc4ccc(F)c(F)c4)ncnc32)[C@H](O)[C@@H]1O [Example 43, (2R,3R,4S,5R)-2-{6-[(3,4-Difluorophenyl)amino]-9H-purin-9-yl}-5-ethynyltetrahydrofuran-3,4-diol] | >188 | 34.9
C#C[C@H]1O[C@@H](n2cnc3c(Nc4ccc(F)cc4Cl)ncnc32)[C@H](O)[C@@H]1O [Example 35, (2R,3R,4S,5R)-2-{6-[(2-chloro-4-fluorophenyl)amino]-9H-purin-9-yl}-5-ethynyltetrahydrofuran-3,4-diol] | >974 | 6.48
C#C[C@H]1O[C@@H](n2cnc3c(N[C@H]4CCC[C@@H]4O)ncnc32)[C@H](O)[C@@H]1O [Example 3, (2R,3R,4S,5R)-5-Ethynyl-2-(6-{[(1S,2S)-2-hydroxycyclopentyl]amino}-9H-purin-9-yl)tetrahydrofuran-3,4-diol] | >823 | 6.48
C#C[C@H]1O[C@@H](n2cnc3c(NC4Cc5ccccc5C4)ncnc32)[C@H](O)[C@@H]1O [Example 4, (2R,3R,4S,5R)-2-[6-(2,3-Dihydro-1H-inden-2-ylamino)-9H-purin-9-yl]-5-ethynyltetrahydrofuran-3,4-diol] | >407 | 27.96
(2R,3R,4S,5R)-2-[6-(cyclobutylamino)-9H-purin-9-yl]-5-ethynyltetrahydrofuran-3,4-diol [Example 5] | >196 | 3
C#C[C@H]1O[C@@H](n2cnc3c(NCC4CC4)ncnc32)[C@H](O)[C@@H]1O [Example 11, (2R,3R,4S,5R)-2-{6-[(Cyclopropylmethyl)amino]-9H-purin-9-yl}-5-ethynyltetrahydrofuran-3,4-diol] | >210 | 5
C#C[C@H]1O[C@@H](n2cnc3c(NC4CCN(C(=O)OCC)CC4)ncnc32)[C@H](O)[C@@H]1O [Example 2, Ethyl 4-({9-[(2R,3R,4S,5R)-5-ethynyl-3,4-dihydroxytetrahydrofuran-2-yl]-9H-purin-6-yl}amino)piperidine-1-carboxylate] | >3580 | 10
C#C[C@H]1O[C@@H](n2cnc3c(NC4CC4)ncnc32)[C@H](O)[C@@H]1O [Example 10, (2R,3R,4S,5R)-2-[6-(Cyclopropylamino)-9H-purin-9-yl]-5-ethynyltetrahydrofuran-3,4-diol] | >1066 | 6.89

— US20040162422A1, “Chemical compounds” (priority 2001, published 2004)
